Laboratory results published in patent US10969380B2, “Simultaneous detection of cannibalism and senescence as prognostic marker for cancer” (Institut Gustave-Roussy, priority 2012, dated 2021).

Assays:
Type in all cases: cell-based, human
HCT116 cells [1] = test: Cell-in-cell structures (cellular cannibalism) by confocal microscopy of CMFDA/CMTMR-labelled cocultures; details: for generation of cell-in-cell structures after supplementation with nucleotide: ATP or UTP supplementation, ROCK-dependent; for generation of cell-in-cell structures after TP53 inactivation in presence of inhibitor: TP53 inactivated by PFT-α, knockdown or knockout, 20 μM Y27632 or 100 μM z-VAD
Experimental: FIG. 1. Identification of TP53 as repressor of cellular cannibalism. (A) Schematic representation of experimental procedure used to evaluate the ability to tumor suppressive depletion to enhance cell in cell internalization. (B) Frequencies of cell-in-cell structures induced by depletion of tumor suppressive proteins in HCT116. After 48 hours of transfection indicated siRNA, colorectal HCT116 cells were stained with CMTMR and CMFDA cell trachers, mixed and cultured during 24 hours. Quantification of cell-in-cell structures induced by depletions of tumor suppressor proteins was realized by confocal microscopy. The frequencies of cell-in-cell structures were determined for at least 300 cells in 3 independent experiments (mean+/−s.e.m, p<0.001). (C) Detection of cell-in-cell structures induced by depletion of TP53, as visualized by confocal microscopy. […] Representative micrographs of xy (scale bar, 5 μm), xz (scale bar, 4 μm) and yz (scale bar, 1 μm) optical sections are shown. Images are representative of at least four independent experiments. (D) Representative micrographs of cell-in-cell structures showing that after depletion of TP53 by two specific siRNAs, (red) CMTR labeled HCT116 cells internalized (red) CMTR labeled HCT116 cells (noted R(R)) or (green) CMFDA labeled HCT116 cells (noted R(G)), and (green) CMFDA labeled HCT116 cells engulfed (red) CMTR labeled HCT116 cells (noted G(R)) or (green) CMFDA labeled HCT116 cells (noted G(G)) (scale, 5 μm). (E) Frequencies of cell-in-cell structures showing R(R), R(G), G(R) or G(G) cell internalization detected after depletion of TP53 by two distinct siRNAs (as compare to control). The frequencies of cell-in-cell structures were determined for at least 300 cells in 3 independent experiments (mean+/−s.e.m, p<0.001). (F) Cell-in-cell structures induced by 10 μM PFT-α, TP53 knockdown, or TP53 knockout in HCT116. Cell-in-cell structures were identified by b-catenin (white), CMFDA (green) and CMTMR (red) staining of internalizing HCT116 cells. Images are representative of at least four independent experiments (scale bar in a, 5 μm and scale bar in b 1 μm). (G) Frequencies of cell-in-cell structures induced by 10 μM PFT-α, TP53 knockdown, or TP53 knockout in HCT116 in presence or in absence of 20 μM of ROCK inhibitor (Y27632) or 100 μM of pan-caspase inhibitor (z-VAD). The frequencies of cell-in-cell structures were determined for at least 300 cells in 3 independent experiments (mean+/−s.e.m, p<0.001). (H) Detection of cell-in-cell structures in TP53 depleted human diploid fibroblasts strain WI38, as visualized by confocal microscopy. […] Representative micrographs of xy (scale bar, 5 μm), xz (scale bar, 4 μm) and yz (scale bar, 1 μm) optical sections are shown. Images are representative of at least four independent experiments. (1) Frequencies of cell-in-cell structures induced by depletion of TP53 in human diploid fibroblasts strain WI38. The frequencies of cell-in-cell structures were determined for at least 300 cells in 3 independent experiments (mean+/−s.e.m, p<0.001).
After inactivation of TP53 or Δ133TP53, primary human fibroblasts, primary human keratinocytes, colorectal carcinoma Tp53^+/+ HCT116 cells and pancreatic PANC813 cells were incubated during 24 hours in presence or in absence of indicated concentrations of the pharmacological inhibitor of purinergic P2Y2 receptor Kaempferol (Sigma), the pharmacological inhibitor of ROCK Y27632 (Sigma) or the pan-caspase inhibitor zVAD-fmk (100 uM, BD Biosciences), ATP, UTP and soluble apyrase used in indicated experiments were obtained from Sigma.
After 48 hours of transfection with specific indicated siRNA, cells were stained with 10 μM of 5-chloromethylfluorescein diacetate (Cell Tracker Green CMFDA, Invitrogen) or with 10 μM of 5-(and-6)-(((4-Chloromethyl)Benzoyl)Amino)Tetramethylrhodamine (CMTMR, Invitrogen) and cocultured for indicated time. […]

caspase-3 = test: Cleavage of caspase-3 by immunoblot; design: dose or concentration left out as unconfirmed; details: cisplatin, positive control
Experimental: FIG. 7. Effects of TP53 inactivation on cellular cannibalism. (A) Detection of cell-in-cell structures induced by depletion of TP53, as visualized by confocal microscopy. […] Images are representative of at least four independent experiments. (B) Detection of cell-in-cell structures induced by depletion of TP53 by light microscopy. (C) Time-lapse imaging of cellular cannibalism detected after depletion of TP53 on HCT116 cells. After 48 hours of transfection with siRNA against TP53, cells were stained as previously described with CMFDA and CMTMR cell trackers and cocultured under time-lapse confocal videomicroscopy. Indicated numbers represent hours and minutes. […] After 48 hours of TP53 knockdown, cleavage of caspase-3 was analyzed by immunoblot. […] Mitotic events and cellular cannibalism were detected and recorded during approximately fifteen hours. […] ROCK activity was determined by detecting the phosphorylation of myosin light chain 2 on serine 19 (MLC2S19*). […] TP53 knocked down, or TP53 knocked out HCT116 cells were analyzed for MLC2S19*, MLC2 or TP53 by immunoblot. […] Tp53^−/+ and Tp53^−/− HCT116 cells are fixed and analyzed by electron microscopy. […] HCT116 cells were transfected with specific siRNAs for TP53 during 48 hours and expression of TP53 (H) or MLCS19* (I) were determined by immunoblots. […]

[2] = tested on: P2Y2 purinergic receptors; test: P2Y2 expression by immunoblot; details: HCT116 treated with 10 μM CDDP
HCT116 cells [3] = test: Release of ATP by ATP-dependent bioluminescence (Enliten ATP assay); details: HCT116 treated with 10 μM CDDP
Experimental: FIG. 11. Extracellular ATP and purinergic receptor P2Y2 participate in cellular cannibalism. (A.) Detection of cellular cannibalism after cis-platinium (CDDP) or γ-irradiation (IR) treatment. After 24 hours treatment with 10 μM CDDP or irradiation (IR) with 4 grays, half cell population of colon carcinoma HCT116 cells were stained with green CMFDA cell tracker or with red CMTMR cell tracker and analyzed for cellular cannibalism by confocal microscopy after 24 hours of coculture in presence or in absence of 20 μM of ROCK inhibitor (YI27632) or 100 μM of pan-caspase inhibitor (zVAD). The frequencies of cannibal cells were determined for at least 300 cells in 3 independent experiments (mean+/−s.e.m, *p<0.001). (B-D) Detection of ATP release after stimulation with senescent-induced stresses. Release of ATP on HCT116 cells treated with 10 μM CDDP (B) or 4 gray γ-irradiation (IR) (B) Of depleted for p53 (C) or Δ133p53 (C) was determined 2 hours after the beginning of coculture using ATP-dependent bioluminescence in 3 independent experiments, (D) Effect of ROCK inhibitor on ATP release detected after p53 inactivation. Release of ATP was detected as previously described in presence or in absence of 20 μM of Y27632 (mean+/−s.e.m, *p<0.001). […] The frequencies of cell-in-cell structures were determined for at least 300 cells in 3 independent experiments (mean+/−s.e.m, *p<0.001). […]

Cc1ccc(C(=O)Cn2c3c(sc2=N)CCCC3)cc1 [pifithrin-α]
cell-in-cell structures induced by pharmacological inactivation of TP53 (HCT116 cells [1]; HCT116, 10 μM PFT-α, 24 hours coculture): induced cell-in-cell structures

O=c1ccn([C@@H]2O[C@H](COP(=O)(O)OP(=O)(O)OP(=O)(O)O)[C@@H](O)[C@H]2O)c(=O)[nH]1 [UTP]
generation of cell-in-cell structures after supplementation with nucleotide (HCT116 cells [1]; HCT116): strongly enhanced the ROCK-dependent generation of cell-in-cell structures

apyrase
cellular internalization induced by the depletion of TP53 or Δ133TP53 (HCT116 cells [1]; HCT116, different concentrations of apyrase): reduced cellular internalization

Nc1ncnc2c1ncn2C1OC(CO[P@SP3](=O)(O)O[P@SP3](=O)(O)O[P@SP3](=O)(O)O)C(O)C1O (stereo not drawn) [ATP, Adenosine-5′-triphosphate]
generation of cell-in-cell structures after supplementation with nucleotide (HCT116 cells [1]; HCT116): strongly enhanced the ROCK-dependent generation of cell-in-cell structures

N.N.[Cl][Pt][Cl] [cisplatin]
cleavage of caspase-3 (caspase-3): intense cleavage of caspase-3
expression of the P2Y2 purinergic receptors [2]: enhanced the expression of the P2Y2 purinergic receptors
release of ATP (HCT116 cells [3]): released ATP shortly after treatments

Z-VAD-fmk
generation of cell-in-cell structures after TP53 inactivation in presence of inhibitor (HCT116 cells [1]): not affected

C[C@@H](N)[C@H]1CC[C@H](C(=O)Nc2ccncc2)CC1 [Y26732]
generation of cell-in-cell structures after TP53 inactivation in presence of inhibitor (HCT116 cells [1]): prevented the generation of cell-in-cell structures
